Measurements taken from article PMC3265452 (PLoS Neglected Tropical Diseases, 2012).
Where a name gives a salt, the structure may show the parent alone. Read-outs that look alike come from different tables or passages of the source.

Target: AaDOP2 (Aedes aegypti, UniProt H6D5H2)
Experiment: AaDOP2 antagonist screen of the LOPAC1280 library (HEK-CRELuc-Aadop2 cells, luminescence)
Format: cell-based
[1] = 10 µM compound, 300 nM dopamine, 2 hr, hit = compound effect <20

Sequence of AaDOP2 (H6D5H2 1-476): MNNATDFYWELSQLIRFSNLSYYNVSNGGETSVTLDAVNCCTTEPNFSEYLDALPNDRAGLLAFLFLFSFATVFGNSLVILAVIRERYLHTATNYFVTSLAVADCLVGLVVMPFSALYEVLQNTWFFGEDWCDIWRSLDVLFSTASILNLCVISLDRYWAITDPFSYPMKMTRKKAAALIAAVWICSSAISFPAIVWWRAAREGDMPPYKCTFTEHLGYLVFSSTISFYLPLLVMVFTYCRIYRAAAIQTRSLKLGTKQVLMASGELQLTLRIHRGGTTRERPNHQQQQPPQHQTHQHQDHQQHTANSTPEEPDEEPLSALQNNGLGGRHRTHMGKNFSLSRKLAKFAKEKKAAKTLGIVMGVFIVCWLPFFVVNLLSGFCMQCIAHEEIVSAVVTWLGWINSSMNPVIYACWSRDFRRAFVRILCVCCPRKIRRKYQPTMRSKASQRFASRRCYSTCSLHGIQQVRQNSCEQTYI

SMILES: Cl.NCCCCNS(=O)(=O)c1ccc2c(Cl)cccc2c1 [Compound 18, N-(4-Aminobutyl)-5-chloro-2-naphthalenesulfonamide hydrochloride]
- Compound effect (percent receptor signaling in presence of test compound, relative lux units relative to the SCH23390 control): 97

SMILES: O=C(O)[C@@H]1CCN1 [Compound 19, L-azetidine-2-carboxylic acid]
- Compound effect (percent receptor signaling in presence of test compound, relative lux units relative to the SCH23390 control): 115

SMILES: Cl.Nc1cc(Cl)c(N=C2NCCN2)c(Cl)c1 [Compound 20, p-Aminoclonidine hydrochloride]
- Compound effect (percent receptor signaling in presence of test compound, relative lux units relative to the SCH23390 control) [1]: 79%

SMILES: NC(=O)c1cccc(N)c1 [Compound 21, 3-aminobenzamide]
- Compound effect (percent receptor signaling in presence of test compound, relative lux units relative to the SCH23390 control): 96

SMILES: Nc1ccc2c3c(cccc13)C(=O)NC2=O [Compound 23, 4-Amino-1,8-naphthalimide]
- Compound effect (percent receptor signaling in presence of test compound, relative lux units relative to the SCH23390 control) [1]: 104%

SMILES: COC(=O)[C@H]1[C@H]2C[C@@H]3c4[nH]c5cc(OC)ccc5c4CCN3C[C@H]2C[C@@H](OC(=O)c2cc(OC)c(OC)c(OC)c2)[C@@H]1OC [Compound 24, Reserpine]
- Compound effect (percent receptor signaling in presence of test compound, relative lux units relative to the SCH23390 control): 113

SMILES: NC12CC3CC(CC(C3)C1)C2 [Compound 25, Amantadine hydrochloride]
- Compound effect (percent receptor signaling in presence of test compound, relative lux units relative to the SCH23390 control): 84

SMILES: Cn1c(=O)c2[nH]cnc2n(C)c1=O.Cn1c(=O)c2[nH]cnc2n(C)c1=O.NCCN [Compound 26, Aminophylline ethylenediamine]
- Compound effect (percent receptor signaling in presence of test compound, relative lux units relative to the SCH23390 control): 129

SMILES: [N-]=[N+]=Nc1ccc(C(=O)CSC[C@H](NC(=O)CC[C@H](N)C(=O)O)C(=O)NCC(=O)O)cc1 [Compound 27, S-(p-Azidophenacyl)glutathione]
- Compound effect (percent receptor signaling in presence of test compound, relative lux units relative to the SCH23390 control) [1]: 105%

SMILES: Nc1nc(N)c2nc(CNc3ccc(C(=O)N[C@@H](CCC(=O)O)C(=O)O)cc3)cnc2n1 [Compound 28, Aminopterin]
- Compound effect (percent receptor signaling in presence of test compound, relative lux units relative to the SCH23390 control): 112

SMILES: CC(=O)NCCc1c[nH]c2ccc(O)cc12 [Compound 29, N-Acetyl-5-hydroxytryptamine]
- Compound effect (percent receptor signaling in presence of test compound, relative lux units relative to the SCH23390 control): 110

SMILES: O=C(O)C1=CC(=C(c2ccc(O)c(C(=O)O)c2)c2ccc(O)c(C(=O)O)c2)C=CC1=O [Compound 30, Aurintricarboxylic acid]
- Compound effect (percent receptor signaling in presence of test compound, relative lux units relative to the SCH23390 control): 132

SMILES: CCCCC/C=C\C/C=C\C/C=C\C/C=C\CCCC(=O)NCC(=O)O [Compound 32, N-arachidonylglycine]
- Compound effect (percent receptor signaling in presence of test compound, relative lux units relative to the SCH23390 control): 116

SMILES: NCCCC(=O)O [Compound 33, GABA]
- Compound effect (percent receptor signaling in presence of test compound, relative lux units relative to the SCH23390 control): 102

SMILES: Cc1cn([C@H]2C[C@H](N=[N+]=[N-])[C@@H](CO)O2)c(=O)[nH]c1=O [Compound 34, 3'-Azido-3'-deoxythymidine]
- Compound effect (percent receptor signaling in presence of test compound, relative lux units relative to the SCH23390 control): 114

SMILES: CC(=O)OC(C)C[N+](C)(C)C.[Cl-] (stereo not drawn) [Compound 35, Acetyl-beta-methylcholine chloride]
- Compound effect (percent receptor signaling in presence of test compound, relative lux units relative to the SCH23390 control): 127

SMILES: Nc1ncn([C@@H]2O[C@H](CO)[C@@H](O)[C@H]2O)c(=O)n1 [Compound 36, 5-azacytidine]
- Compound effect (percent receptor signaling in presence of test compound, relative lux units relative to the SCH23390 control): 103

SMILES: CCN(c1nc(N)c(C(=O)NC(=N)N)nc1Cl)C(C)C [Compound 37, 5-(N-Ethyl-N-isopropyl)amiloride]
- Compound effect (percent receptor signaling in presence of test compound, relative lux units relative to the SCH23390 control): 75

SMILES: N#CCCN.N#CCCN.O=C(O)/C=C/C(=O)O [Compound 38, 3-Aminopropionitrile fumarate]
- Compound effect (percent receptor signaling in presence of test compound, relative lux units relative to the SCH23390 control): 100

SMILES: O=c1cc(-c2ccc(O)cc2)oc2cc(O)cc(O)c12 [Compound 39, Apigenin]
- Compound effect (percent receptor signaling in presence of test compound, relative lux units relative to the SCH23390 control): 21

SMILES: Cl.NCCCCCCNS(=O)(=O)c1cccc2c(Cl)cccc12 [Compound 40, W-7 hydrochloride]
- Compound effect (percent receptor signaling in presence of test compound, relative lux units relative to the SCH23390 control) [1]: 87%

SMILES: Cl.NC1C=CC=C(C(=O)O)C1 (stereo not shown) [Compound 41, Gabaculine hydrochloride]
- Compound effect (percent receptor signaling in presence of test compound, relative lux units relative to the SCH23390 control): 106

SMILES: CC1=C(C)C(=O)C(CCCCC#CCCCC#CCO)=C(C)C1=O [Compound 43, AA-861]
- Compound effect (percent receptor signaling in presence of test compound, relative lux units relative to the SCH23390 control): 69

SMILES: Cl.Nc1c2c(nc3ccccc13)CCCC2 [Compound 44, 9-Amino-1,2,3,4-tetrahydroacridine hydrochloride]
- Compound effect (percent receptor signaling in presence of test compound, relative lux units relative to the SCH23390 control): 206

SMILES: O=C(O)CCC/C=C\C[C@@H]1[C@@H](/C=C/[C@H](O)C2Cc3ccccc3C2)[C@@H](F)C[C@@H]1O [Compound 45, AL-8810]
- Compound effect (percent receptor signaling in presence of test compound, relative lux units relative to the SCH23390 control): 102

SMILES: Nn1nnc2ccccc21 [Compound 46, 1-Aminobenzotriazole]
- Compound effect (percent receptor signaling in presence of test compound, relative lux units relative to the SCH23390 control): 141

SMILES: NCCCS(=O)(=O)O.[Na] [Compound 47, 3-Amino-1-propanesulfonic acid sodium]
- Compound effect (percent receptor signaling in presence of test compound, relative lux units relative to the SCH23390 control) [1]: 94%

SMILES: CN1CCc2cccc3c2[C@H]1Cc1ccc(O)c(O)c1-3 [Compound 48, Apomorphine hydrochloride hemihydrate]
- Compound effect (percent receptor signaling in presence of test compound, relative lux units relative to the SCH23390 control): 54

SMILES: Cl.NOCC(=O)O.NOCC(=O)O [Compound 49, O-(Carboxymethyl)hydroxylamine hemihydrochloride]
- Compound effect (percent receptor signaling in presence of test compound, relative lux units relative to the SCH23390 control) [1]: 97%

SMILES: CN(C)c1nc(N)c(C(=O)NC(=N)N)nc1Cl [Compound 50, 5-(N,N-Dimethyl)amiloride hydrochloride]
- Compound effect (percent receptor signaling in presence of test compound, relative lux units relative to the SCH23390 control): 108

SMILES: Cn1cnc([N+](=O)[O-])c1Sc1ncnc2nc[nH]c12 [Compound 51, Azathioprine]
- Compound effect (percent receptor signaling in presence of test compound, relative lux units relative to the SCH23390 control): 103

SMILES: Nc1nc2c(ncn2COCCO)c(=O)[nH]1 [Compound 52, Acyclovir]
- Compound effect (percent receptor signaling in presence of test compound, relative lux units relative to the SCH23390 control): 90

SMILES: CN(C)CCCO[C@@H]1[C@H]2OC(C)(C)O[C@H]2O[C@@H]1[C@H](O)CO [Compound 53, Amiprilose hydrochloride]
- Compound effect (percent receptor signaling in presence of test compound, relative lux units relative to the SCH23390 control): 99

SMILES: O=C1Cc2c([nH]c3ccc([N+](=O)[O-])cc23)-c2ccccc2N1 [Compound 54, Alsterpaullone]
- Compound effect (percent receptor signaling in presence of test compound, relative lux units relative to the SCH23390 control): 92

SMILES: N=C(N)NCCC[C@H](N)C(=O)O [Compound 56, L-Arginine]
- Compound effect (percent receptor signaling in presence of test compound, relative lux units relative to the SCH23390 control): 94

SMILES: CC(=O)N[C@@H](Cc1c[nH]c2ccccc12)C(=O)OCc1cc(C(F)(F)F)cc(C(F)(F)F)c1 [Compound 59, L-732,138]
- Compound effect (percent receptor signaling in presence of test compound, relative lux units relative to the SCH23390 control): 100

SMILES: CC(=O)Oc1ccccc1C(=O)O [Compound 60, Acetylsalicylic acid]
- Compound effect (percent receptor signaling in presence of test compound, relative lux units relative to the SCH23390 control): 87

SMILES: CC(C)CN(C)c1nc(N)c(C(=O)N=C(N)N)nc1Cl [Compound 61, 5-(N-Methyl-N-isobutyl)amiloride]
- Compound effect (percent receptor signaling in presence of test compound, relative lux units relative to the SCH23390 control): 72

SMILES: CC(=O)SCC[N+](C)(C)C.[Cl-] [Compound 62, Acetylthiocholine chloride]
- Compound effect (percent receptor signaling in presence of test compound, relative lux units relative to the SCH23390 control): 122

SMILES: C[C@]12CCC(=O)C(O)=C1CC[C@@H]1[C@@H]2CC[C@]2(C)C(=O)CC[C@@H]12 [Compound 63, 4-Androsten-4-ol-3,17-dione]
- Compound effect (percent receptor signaling in presence of test compound, relative lux units relative to the SCH23390 control): 107

SMILES: Br.Br.N=C(N)SCCN [Compound 64, 2-(2-Aminoethyl)isothiourea dihydrobromide]
- Compound effect (percent receptor signaling in presence of test compound, relative lux units relative to the SCH23390 control): 104

SMILES: CCN(CC)CCNC(=O)c1ccc(NC(C)=O)cc1.Cl [Compound 65, N-Acetylprocainamide hydrochloride]
- Compound effect (percent receptor signaling in presence of test compound, relative lux units relative to the SCH23390 control) [1]: 126%

SMILES: C[C@H](CCC(=O)NCCS(=O)(=O)O)[C@H]1CC[C@H]2[C@@H]3[C@H](O)C[C@@H]4C[C@H](O)CC[C@]4(C)[C@H]3C[C@H](O)[C@]12C [Compound 66, Sodium Taurocholate]
- Compound effect (percent receptor signaling in presence of test compound, relative lux units relative to the SCH23390 control): 115

SMILES: NCCCNCCSP(=O)(O)O [Compound 67, Amifostine]
- Compound effect (percent receptor signaling in presence of test compound, relative lux units relative to the SCH23390 control): 111

SMILES: CC(=O)Nc1nnc(S(N)(=O)=O)s1 [Compound 68, Acetazolamide]
- Compound effect (percent receptor signaling in presence of test compound, relative lux units relative to the SCH23390 control): 106

SMILES: COC(=O)C1=CCCN(C)C1 [Compound 69, Arecoline hydrobromide]
- Compound effect (percent receptor signaling in presence of test compound, relative lux units relative to the SCH23390 control): 104

SMILES: CCS(=O)(=O)Nc1cccc(C(=C2CCCCC2)c2cnc[nH]2)c1 [Compound 70, A-315456]
- Compound effect (percent receptor signaling in presence of test compound, relative lux units relative to the SCH23390 control): 111

SMILES: COc1ccc(CNC(=O)/C=C/c2ccc3[nH]cc(CCN(C)C)c3c2)cc1 [Compound 71, GR 4661]
- Compound effect (percent receptor signaling in presence of test compound, relative lux units relative to the SCH23390 control): 114

SMILES: NCC(O)(CS(=O)(=O)O)c1ccc(Cl)cc1 (stereo not shown) [Compound 72, 2-Hydroxysaclofen]
- Compound effect (percent receptor signaling in presence of test compound, relative lux units relative to the SCH23390 control) [1]: 110%

SMILES: CCCCC[C@H](CC(=O)NO)C(=O)N[C@H](C(=O)N1CCC[C@H]1CO)C(C)C [Compound 73, Actinonin]
- Compound effect (percent receptor signaling in presence of test compound, relative lux units relative to the SCH23390 control): 96

SMILES: CN(Cc1cnc2nc(N)nc(N)c2n1)c1ccc(C(=O)N[C@@H](CCC(=O)O)C(=O)O)cc1 [Compound 74, Methotrexate]
- Compound effect (percent receptor signaling in presence of test compound, relative lux units relative to the SCH23390 control): 89

SMILES: C[N+]1(C)[C@@H]2CC[C@H]1C[C@@H](OC(=O)C(CO)c1ccccc1)C2 (stereo partly shown) [Compound 75, Atropine methyl bromide]
- Compound effect (percent receptor signaling in presence of test compound, relative lux units relative to the SCH23390 control): 105
